This note sets out measurements from patent publication US20220373534A1, “HUMAN NASOPHARYNGEAL CARCINOMA CELLS DERIVED FROM PATIENT DERIVED XENOGRAFT AND USES THEREOF” (Chang Gung Memorial Hospital, Linkou, priority 2021, published 2022).

In the experiment the test system is NPC PDX-B13. In words: In vivo study of tumor volume in the NPC PDX-B13 mouse model. The arrangement: species or system NOD/SCID mice. Particulars: week 6, read from FIG. 4.

Molecules are shown by their SMILES.

Method: NPC cell lines, C666-1 (EBV positive) and HK-1 (EBV negative), were maintained in RPMI containing 10% fetal bovine serum (FBS). A cell growth assay and animal studies were conducted as described by CL Hsu et al (“Application of a Patient-Derived Xenograft Model in Cytolytic Viral Activation Therapy for Nasopharyngeal Carcinoma.” Oncotarget 6, no. 31 (2015): 31323-34).
PDX models were generated as follows: NPC tumor samples were obtained from patients with local recurrence or metastasis undergoing biopsy or surgical resection. Each sample was immediately cut into smaller pieces of approximately 3-5 mm in diameter and subcutaneously implanted into the flank regions of anesthetized NOD/SCID mice. The xenograft was excised and reimplanted in small pieces into the next passage after the tumor reached 1-2 cm in diameter.

Regarding `CN(C)C/C=C/C(=O)Nc1cc2c(Nc3ccc(F)c(Cl)c3)ncnc2cc1O[C@H]1CCOC1` [AFA, Afatinib], the “inhibit PDX-B13 tumor growth (reduce tumor volume)” value is recorded as “approximately 30%”.
As for `CC(=O)c1c(C)c2cnc(Nc3ccc(N4CCNCC4)cn3)nc2n(C2CCCC2)c1=O` [PAL, Palbociclib], the figure is about 70%.
